Measurements as given in US9877978B2, “Compositions comprising NDGA derivatives and sorafenib and their use in treatment of cancer” (THE JOHNS HOPKINS UNIVERSITY, priority 2012, dated 2018).
Where two headings read alike, the source gives them in different places.

Key:
HepG2 human HCC cells = assay: MTT cytotoxicity assay with median-effect / combination index analysis; assay type: cell-based; details: for DRI value at ED75 / DRI value at ED90 / DRI value at ED95: single agent vs combination; for IC50: Homo sapiens
Protocol: Cytotoxicity assay. […] M4N was used at concentrations between 0 and 80 μM. For the combination of M4N and sorafenib a constant molar ratio of 2:1 (M4N:sorafenib) was used. Twenty four hours after drug addition, cytotoxicity was assessed with the MTT assay with […] measured with a Power Wave 200 microplate reader.
Evaluation of drug interactions. The combination index (CI) isobologram method of Chou and Talalay, which is based on the median-effect principle, was used to calculate synergism or antagonism for the combined drug effects. Dose-effect curves for the two drugs, singly and in combination, in serially diluted concentrations were plotted using the median-effect equation and plot and the CI equation and plot. CI values at different effect and dose levels and isobolograms were generated automatically using the computer software CompuSyn. With this method, additive, synergistic, or antagonistic effects are indicated by CI values of 1, <1, and >1, respectively. Comparison of the ratio of doses required to reach a given effect level for each single drug and the drugs in combination was used to determine the dose-reduction.

[1] = system: caspase activation (procaspases 9, 4 and 7, caspase 3) in AsPc-1 human pancreatic carcinoma cells; assay: Western immunoblot analysis of caspase activation; assay type: cell-based; details: for caspase activation (procaspase cleavage): 80 μM M4N, 40 μM sorafenib (FIG. 17); for caspase 3 activation: after 18 h of treatment
Protocol: Western immunoblot analysis. Treated and control cells were washed with PBS and suspended in RIPA buffer (150 mM NaCl, 50 mM Tris-HCL (pH8.0), 0.1% SDS, 1% NP40, and 0.5% deoxycholate) supplemented with protease inhibitor cocktail. After a 20 min incubation on ice, the suspension was centrifuged to clear the solubilized proteins. Bradford protein assay were performed and samples containing equivalent amounts of protein were resolved by standard SDS-polyacrylamide gel electrophoresis and transferred to nirocellulose membrane. The membranes were blocked with skim milk, and incubated with primary antibodies at 4° C. overnight and then with secondary antibody conjugated with horse radish peroxidase at room temperature for 1 h. The signals were detected by western blot chemiluminescence detection reagent.

[2] = HepG2, concurrent administration of M4N

Compound: CNC(=O)c1cc(Oc2ccc(NC(=O)Nc3ccc(Cl)c(C(F)(F)F)c3)cc2)ccn1 [sorafenib]
- DRI value at ED75 (HepG2 human HCC cells; HepG2, 24 h): 92815.6
- DRI value at ED90 (HepG2 human HCC cells; HepG2, 24 h): 489945.0
- DRI value at ED95 (HepG2 human HCC cells; HepG2, 24 h): 1519041
- DRI: decrease of concentration necessary to inhibit growth of 50% of cells (ED50) (HepG2 human HCC cells; [2]): 17,583.1 fold
- DRI: decrease of concentration necessary to inhibit growth of 75% of cells (ED75) (HepG2 human HCC cells; [2]): 92,815.6 fold
- DRI: decrease of concentration necessary to inhibit growth of 95% of cells (ED95) (HepG2 human HCC cells; [2]): 151,9041 fold
- IC50 (HepG2 human HCC cells; HepG2, after 24 h of treatment (FIG. 4), read-out: IC50 against HepG2 cells): ~30 µM
- cytotoxic effect (HepG2 human HCC cells; sorafenib 20 μM alone, HepG2, 24 h): ~20%
- caspase activation (procaspase cleavage) [1]: decreased levels of procaspases 9, 4 and 7
- caspase 3 activation [1]: neither drug nor their combination had an effect

Compound: COc1ccc(C[C@@H](C)[C@@H](C)Cc2ccc(OC)c(OC)c2)cc1OC [M4N, tetra-O-methyl nordihydroguaiaretic acid]
- DRI value at ED75 (HepG2 human HCC cells; HepG2, 24 h): 3.15
- DRI value at ED90 (HepG2 human HCC cells; HepG2, 24 h): 1.75
- DRI value at ED95 (HepG2 human HCC cells; HepG2, 24 h): 1.17
- IC50 (HepG2 human HCC cells; HepG2, 24-Hour Treatment, combination at constant molar ratio 2:1 (M4N:sorafenib), read-out: Dm, median effect dose (concentration that inhibits cell growth by 50%)): 283 µM
- caspase activation (procaspase cleavage) [1]: little effect on caspase activation
- caspase 3 activation [1]: neither drug nor their combination had an effect
